The test system of experiment [1] is hPBMCs (Human Peripheral Blood Mononuclear Cells). The experiment in a line: Induction of interferon-α in hPBMCs in vitro. The class given is cell-based. Conditions: for Emax / minimal effective concentration: Homo sapiens, PBMC; for Emax: 24 h, peak IFNα2a as percentage of peak response of standard 2-Amino-7-(cyclopropylmethyl)-9-B-D-xylofuranosyl-7,9-dihydro-1H-purine-6,8-dione, averaged across donors, read-out: IFNrmax, Relative Maximal IFNα2a Production (%); for minimal effective concentration: minimal effective concentration for interferon-α production (generally at least 80 pg/ml above baseline), geometric mean across at least three donors, 24 hours, read-out: Weighted MEC. As for the experimental part:
Treatment of hPBMCs with a TLR7 agonist typically induces some production of interferon-α as well as lesser amounts of a variety of other cytokines and chemokines. A typical experiment uses hPBMCs isolated from a healthy donor and placed in replicate cell culture wells; typically 1.0-7.5×10^6 cells are placed in each well. A test compound is added and the cells are cultured for 24 hours at 37° C. in a humidified atmosphere containing 5% CO2 post-addition; untreated controls are included. Secreted interferon-α production is measured using an a multisubtype interferon-α ELISA kit like those from PBL Assay Sciences or specifically as IFNα2a as part of a panel of cytokines and chemokines using luminex methodologies.
The minimal effective concentration (MEC) is the minimum concentration in a dose response curve where a significant increase in interferon-α production (generally at least 80 pg/ml) is observed above baseline. MEC values for each compound are determined for at least three donors. The weighted MEC for each compound is the geometric mean of all individual MECs across all donors. Concentrations tested typically consist of a two-fold dilution series starting at 100 μM. In the calculation of weighted MEC, any individual MEC value greater the highest concentration tested is arbitrarily set to two times the highest concentration tested unless all MECs for a compound exceed this value. The maximal amount of IFNα2a for each donor is determined from dose dependence for each compound.
In order to normalize for variation in each hPBMC preparation, these values are first transformed by expressing as a percentage of peak response measured with a standard (2-Amino-7-(cyclopropylmethyl)-9-B-D-xylofuranosyl-7,9-dihydro-1H-purine-6,8-dione) and then averaging the results across all donors, this average referred to as IFNrmax.
IFNmax is the maximum amount of IFN observed at any concentration across the evaluated concentration range. MEC and IFNmax values for three select compound are shown for three donors (Table 3). The range of tested concentrations were 0.625-5 μM for Imiquimod, 3.125-100 μM for both Compound A and Compound 1, 12.5-100 μM for Compound 2.

The target in a further experiment is T1, human TLR7 (Homo sapiens, UniProt Q9NYK1).
T1 construct: host or cells: HEK293
T1 sequence (Q9NYK1 27-1049): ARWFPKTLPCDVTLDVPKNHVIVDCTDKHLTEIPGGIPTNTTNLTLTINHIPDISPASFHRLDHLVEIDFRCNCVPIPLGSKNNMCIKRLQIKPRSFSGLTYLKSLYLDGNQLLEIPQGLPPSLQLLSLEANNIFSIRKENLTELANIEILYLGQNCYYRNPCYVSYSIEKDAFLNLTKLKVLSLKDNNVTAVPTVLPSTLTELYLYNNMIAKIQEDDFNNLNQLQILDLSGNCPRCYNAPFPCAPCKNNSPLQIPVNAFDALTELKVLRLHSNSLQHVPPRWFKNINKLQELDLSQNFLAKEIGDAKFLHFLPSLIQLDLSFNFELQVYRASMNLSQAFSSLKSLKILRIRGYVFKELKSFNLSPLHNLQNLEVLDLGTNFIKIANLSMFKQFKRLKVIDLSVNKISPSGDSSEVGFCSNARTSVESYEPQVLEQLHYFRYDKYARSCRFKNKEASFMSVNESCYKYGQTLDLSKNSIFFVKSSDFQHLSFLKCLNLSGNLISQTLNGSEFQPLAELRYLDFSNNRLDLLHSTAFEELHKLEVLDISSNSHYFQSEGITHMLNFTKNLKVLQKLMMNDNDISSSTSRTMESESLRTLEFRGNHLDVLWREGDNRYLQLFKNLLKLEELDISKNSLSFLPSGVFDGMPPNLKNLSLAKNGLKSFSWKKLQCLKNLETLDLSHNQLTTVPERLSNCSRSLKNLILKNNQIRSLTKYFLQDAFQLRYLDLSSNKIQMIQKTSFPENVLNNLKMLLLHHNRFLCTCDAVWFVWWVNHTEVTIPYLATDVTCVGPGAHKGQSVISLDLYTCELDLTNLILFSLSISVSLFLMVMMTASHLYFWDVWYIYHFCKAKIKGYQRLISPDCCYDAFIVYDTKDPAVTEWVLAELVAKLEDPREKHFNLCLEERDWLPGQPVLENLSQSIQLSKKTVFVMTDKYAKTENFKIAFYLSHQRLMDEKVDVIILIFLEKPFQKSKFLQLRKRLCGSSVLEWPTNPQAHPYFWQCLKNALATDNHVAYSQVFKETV
The experiment in a line: TLR7 reporter cell assay (HEK293 cells stably expressing human TLR7 with NF-κB-driven SEAP reporter). The class given is cell-based. The conditions noted are these: 15-24 hours; for Emax at 500 µM: HEK293, 500 μM compound, SEAP activity (OD 650 nm) relative to 28.5 μM resiquimod, read-out: Response at 500 μM Compound as a Percent of Resiquimod Response; for pEC50: fit of SEAP dose response, ymax from 28.5 μM resiquimod. The text has this: The engagement of TLRs by cognate ligands triggers downstream signaling cascades, leading to the activation of NF-κB and other transcription factors which initiate various immunomodulatory effects. The human embryonic kidney cell line, HEK293, is essentially non-responsive to TLR agonists, but ectopic expression of TLRs in these cells allows cognate agonists to activate endogenous NF-κB. Accordingly, the HEK293-TLR-NF-κB inducible reporter system is used to assay TLR agonists.
HEK293 cell lines stably expressing human TLR7 or TLR8 together with an NF-κB-driven-secreted alkaline phosphatase (SEAP) reporter were invented at InvivoGen (San Diego, California, USA) and used to assess compounds of the present invention for TLR7 and TLR8 agonist activities. Cells were seeded at 2-5×10^4 cells/well in 96 well plates (200 μl/well) and treated with various concentrations of compound (10 μl) for 15-24 hours. SEAP activity was determined by measuring OD at 650 nm; the media used to culture the cell lines contains the reagents required for SEAP detection. The EC50 values in Table 1 are calculated from fitting the dose response of measured SEAP activity for each compound to the following equation: Y=ymax*c^nh/(EC50^nh+c^nh)+blank where Y is the experimentally measured OD650 at concentration c of test article, blank is the observed OD650 in the absence of TLR7 agonist, ymax is the difference between the measured OD650 in the presence of 28.5 μM resiquimod and the blank and values of EC50 and nh are determined by nonlinear least squares analysis. Resiquimod is a known TLR7 and TLR8 agonist.
Compound A is 5-amino-3-((2R,3R,5S)-3-hydroxy-5-((S)-1-hydroxypropyl)tetrahydrofuran-2-yl)thiazolo[4,5-d]pyrimidine-2,7(3H,6H)-dione)

pEC50: −log10 of the molar value.

One may read the pEC50 as −log10 of the EC50, conventionally taken in molar units. In the case of `CC[C@H](O)[C@@H]1C[C@@H](O)[C@H](n2c(=O)n(C[C@@H](C)O)c3c(=O)[nH]c(N)nc32)O1` (single isomer, unassigned) [Compound 33], in experiment [1], the Emax turned out to be 143% and the minimal effective concentration is 9.9 µM. Also, at human TLR7, the Emax at 500 µM is 73% and the pEC50 was 3.54.
As to `C#CCn1c(=O)n([C@@H]2O[C@H]([C@@H](O)CF)C[C@H]2O)c2nc(N)[nH]c(=O)c21` [Compound 24, 2-Amino-9-((2R,3R,5S)-5-((R)-2-fluoro-1-hydroxyethyl)-3-hydroxytetrahydrofuran-2-yl)-7-(prop-2-yn-1-yl)-7,9-dihydro-1H-purine-6,8-dione], in experiment [1], the Emax was 205% and the minimal effective concentration stood at 12.5 µM. On human TLR7, the Emax at 500 µM came to 52% and the pEC50 is 3.49.
In the case of `C#CCn1c(=O)n([C@@H]2O[C@H](C(=O)O)C[C@H]2O)c2nc(N)[nH]c(=O)c21` [Compound 40, (2S,4R,5R)-5-(2-Amino-6,8-dioxo-7-(prop-2-yn-1-yl)-1,6,7,8-tetrahydro-9H-purin-9-yl)-4-hydroxytetrahydrofuran-2-carboxylic acid], in experiment [1], the Emax is at most 10% and the minimal effective concentration is above 50 µM. Further, the Emax at 500 µM on human TLR7 was below 5%.
On the same counts, the results for `C=C=Cn1c(=O)n([C@@H]2O[C@H]([C@@H](O)CC)C[C@H]2O)c2nc(N)[nH]c(=O)c21` [Compound 8, 2-Amino-9-((2R,3R,5S)-3-hydroxy-5-((S)-1-hydroxypropyl)tetrahydrofuran-2-yl)-7-(propa-1,2-dien-1-yl)-7,9-dihydro-1H-purine-6,8-dione] are 215%, 5.4 µM and below 5%.
As for `CCCn1c(=O)n([C@@H]2O[C@H]([C@@H](O)CC)[C@H](F)[C@H]2O)c2nc(N)[nH]c(=O)c21` [Compound 26, 2-Amino-9-((2R,3S,4R,5R)-4-fluoro-3-hydroxy-5-((S)-1-hydroxypropyl)tetrahydrofuran-2-yl)-7-propyl-7,9-dihydro-1H-purine-6,8-dione], in experiment [1], the Emax turned out to be 304% and the minimal effective concentration is at most 1.6 µM. Further, at human TLR7, the Emax at 500 µM stood at 59% and the negative-log EC50 (pEC50) is 3.57.
On the same counts, the results for `CC[C@H](O)[C@@H]1C[C@@H](O)[C@H](n2c(=O)n(CC(F)(F)F)c3c(=O)[nH]c(N)nc32)O1` [Compound 43, 2-Amino-9-((2R,3R,5S)-3-hydroxy-5-((S)-1-hydroxypropyl)tetrahydrofuran-2-yl)-7-(2,2,2-trifluoroethyl)-7,9-dihydro-1H-purine-6,8-dione] are 158%, 2.5 µM, 97% and 4.26.
With `C#CCn1c(=O)n([C@@H]2O[C@H]([C@@H](O)CC)C[C@H]2O)c2nc(N)[nH]c(=O)c21` [Compound 1, 2-amino-9-((2R,3R,5S)-3-hydroxy-5-((S)-1-hydroxypropyl)tetrahydrofuran-2-yl)-7-(prop-2-yn-1-yl)-7,9-dihydro-1H-purine-6,8-dione], the “Donor 1 IFNmax” value in experiment [1] (Donor 1, maximum IFN at any concentration of the evaluated range) was 3775 pg/mL. For the same compound, in experiment [1] (Donor 2, interferon-α production), the “Donor 2 MEC” value amounted to 6.25 µM. The “Donor 2 IFNmax” value in experiment [1] (Donor 2, maximum IFN at any concentration of the evaluated range) amounted to 2129 pg/mL. Further, the “Donor 3 IFNmax” value in experiment [1] (Donor 3, maximum IFN at any concentration of the evaluated range) amounted to 5623 pg/mL. In addition, in experiment [1], the Emax worked out at 316% and the minimal effective concentration was at most 2.9 µM. Further, in experiment [1] (donor 1), the “IFNmax of Compound 1 relative to Compound A” value stood at 3.6 fold and the “IFNmax of Compound 1 relative to imiquimod” value was determined as 4.8 fold. Also, in experiment [1] (donor 2), the “IFNmax of Compound 1 relative to Compound A” value was determined as 4.4 fold and the “IFNmax of Compound 1 relative to imiquimod” value is given as 11.0 fold. Also, in experiment [1] (donor 3), the “IFNmax of Compound 1 relative to Compound A” value was determined as 2.5 fold and the “IFNmax of Compound 1 relative to imiquimod” value came to 4.2 fold. In addition, the “potency (MEC) of Compound 1 relative to Compound 2” value in experiment [1] (in every case (Donors 1, 2 and 3)) is at least 16 fold. In addition, on human TLR7, the Emax at 500 µM was 67% and the pEC50 was 3.99.
With `C#CCn1c(=O)n([C@@H]2O[C@H](C(C)(C)O)[C@H](F)[C@H]2O)c2nc(N)[nH]c(=O)c21` [Compound 19, 2-Amino-9-((2R,3S,4R,5R)-4-fluoro-3-hydroxy-5-(2-hydroxypropan-2-yl)tetrahydrofuran-2-yl)-7-(prop-2-yn-1-yl)-7,9-dihydro-1H-purine-6,8-dione], in experiment [1], the Emax was at most 10% and the minimal effective concentration was above 50 µM. Moreover, the Emax at 500 µM on human TLR7 was below 5%.
Turning to `CCCCn1c(=O)n([C@@H]2O[C@H]([C@@H](O)CC)[C@H](F)[C@H]2O)c2nc(N)[nH]c(=O)c21` [Compound 30, 2-Amino-7-butyl-9-((2R,3S,4R,5R)-4-fluoro-3-hydroxy-5-((S)-1-hydroxypropyl)tetrahydrofuran-2-yl)-7,9-dihydro-1H-purine-6,8-dione], in experiment [1], the Emax turned out to be 347% and the minimal effective concentration came to 1.6 µM. Besides, on human TLR7, the Emax at 500 µM was found to be 87% and the negative-log EC50 (pEC50) was 4.03.
Regarding `C#CCn1c(=O)n([C@@H]2O[C@H]([C@@H](O)CN)C[C@H]2O)c2nc(N)[nH]c(=O)c21` [Compound 15, 2-Amino-9-((2R,3R,5S)-5-((S)-2-amino-1-hydroxyethyl)-3-hydroxytetrahydrofuran-2-yl)-7-(prop-2-yn-1-yl)-7,9-dihydro-1H-purine-6,8-dione], in experiment [1], the Emax is at most 10% and the minimal effective concentration is above 50 µM. Moreover, the Emax at 500 µM on human TLR7 was below 5%.
